From US5057613A, “Novel thione dopamine beta hydroxylase inhibitors” (Merrell Dow Pharmaceuticals, priority 1987, dated 1991)

Experiments:
[1] = system: spontaneously hypertensive rats (SHR's); assay: in vivo antihypertensive effect, blood pressure in spontaneously hypertensive rats; conditions: 50 mg/kg, IP, Mean Difference ± Standard Deviation
Procedure: The ability of the compounds of this invention to lower blood pressure can be determined in vivo using spontaneously hypertensive rats (SHR's) according to standard and well known procedures. The test compound is administered intraperitoneally (ip) to rats and the blood pressure monitored continuously. Since DBH is a major enzyme in the synthetic pathway of the catecholamines, it would be expected that the presence of an inhibitor would act to decrease the amount of catecholamines produced, and thereby have an antihypertensive effect. The results of the testing for this antihypertensive effect are shown in Table I (MBP is mean blood pressure).

[2] = molecular target: T1, dopamine beta-hydroxylase (DBH) (Bos taurus, UniProt P15101); assay: in vitro inhibition of dopamine beta-hydroxylase (conversion of tyramine to octopamine, oxygen uptake by polarographic electrode); assay type: biochemical; conditions: pH 5, 20-40° C, preferably 37° C
T1 sequence (P15101 1-610): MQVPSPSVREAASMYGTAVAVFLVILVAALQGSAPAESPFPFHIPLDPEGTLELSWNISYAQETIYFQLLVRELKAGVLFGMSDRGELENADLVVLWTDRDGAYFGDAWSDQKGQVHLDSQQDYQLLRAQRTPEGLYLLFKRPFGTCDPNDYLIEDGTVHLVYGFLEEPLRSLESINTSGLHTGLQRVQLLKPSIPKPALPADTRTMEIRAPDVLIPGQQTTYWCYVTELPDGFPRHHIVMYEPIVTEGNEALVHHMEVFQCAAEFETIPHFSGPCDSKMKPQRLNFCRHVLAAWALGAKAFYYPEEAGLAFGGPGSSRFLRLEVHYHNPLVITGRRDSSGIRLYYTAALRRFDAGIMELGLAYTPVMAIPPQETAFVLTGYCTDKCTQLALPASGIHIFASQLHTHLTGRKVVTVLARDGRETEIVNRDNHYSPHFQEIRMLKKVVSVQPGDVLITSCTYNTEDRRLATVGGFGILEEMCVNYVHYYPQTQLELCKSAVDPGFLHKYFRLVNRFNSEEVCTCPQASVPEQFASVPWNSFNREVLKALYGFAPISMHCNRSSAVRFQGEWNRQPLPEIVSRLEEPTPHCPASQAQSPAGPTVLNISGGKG
Procedure: The DBH inhibitory compounds of this invention can readily be determined in vitro by standard and well known procedures for assaying conversion of tyramine to octopamine in the presence of dopamine beta-hydroxylase (DBH). Enzymatic oxygenation by DBH is determined in aqueous solution in the presence of molecular oxygen, an electron donor such as ascorbate, and the necessary cofactors for the enzyme at pH of 5 and a temperature of 20°-40° C., preferably 37° C. The test compound is added at the desired concentration, and the system is incubated. Activity is determined by measuring the oxygen uptake using a polarographic electrode and an oxygen monitor by the method of S. May, et al., J. Biol. Chem. 256, 2258 (1981). Inhibition is given in molar concentration of compound at which DBH activity was halved (IC50) when the test compounds were tested according to the above described procedure. The IC50 (expressed in micromolar units) data of some of the compounds of this invention are expressed in Table I.

DBH = assay: in vivo DBH inhibition, heart dopamine level in spontaneously hypertensive rats; conditions: 50 mg/kg, IP, 6 hours post dose in SHR's; Control 0.015 ± .002; p < .001
Procedure: The compounds of this invention may also be tested for their in vivo DBH inhibiting property according to the procedure of Felice, Felice and Kessinger, J. Neurochem., 31, 1461-1465 (1978) wherein the effects on peripheral dopamine and norepinephrine levels are determined. In this test spontaneously hypertensive rats are dosed (i.p.) at 50 mg per kilogram of body weight and sacrificed six hours later. Average results, expressed in micrograms of dopamine (DA) per gram of heart tissue are determined with the difference between the control and the treated rats being the in vivo (DBH) inhibitory effect of the test compound.

SMILES | Max Change MBP (mean blood pressure) [1] [mmHg] | IC50 [2] [nM] | Heart DA (dopamine per gram of heart tissue), treated (DBH)
S=c1[nH]ccn1CCc1cccs1 [Compound 1, 1,3-Dihydro-1-[2-(2-thienyl)ethyl]-2H-imidazole-2-thione] | -45 ± 17 | 120 | 0.038 ± .003 µg/g
Sc1nccn1CCCc1cccs1 [Compound 2, 1,3-Dihydro-1-[3-(2-thienyl)propyl]-2H-imidazole-2-thione] |  | 1860 | 
